Series [1] can be described thus: Assessment of chemical stability (RP-HPLC normalized purity). It is filed as physicochemical. The note with it: 7 days, 40° C., Table 1; for Normalized purity after 7 days, 40° C., pH 4: pH 4, 0.2 mg/ml; for Normalized purity after 7 days, 40° C., pH 6: pH 6, 0.2 mg/ml; for Normalized purity after 7 days, 40° C., pH 7.5: pH 7.5, 0.2 mg/ml; for Normalized purity after 7 days, 40° C., pH 9: pH 9, 0.2 mg/ml. The method in brief:
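Peptides at 0.2 mg/ml in water adjusted to pH 4, 6, 7.5 or 9, incubated at 40° C for 7 days. Main-peak area-% by RP-HPLC (C8 ammonium formate or C18 TFA gradient, UV 220 nm), normalized to T=0 as 100.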

Series [2] is described as follows: Assessment of physical stability (Thioflavin T fibrillation). It is filed as physicochemical. The arrangement: key: FND = fibrillation not detected; FD = fibrillation detected. The settings on record: 1 mg/ml, 40° C., ThT; for Fibrillation pH 4.0 (Ac): 50 mM acetate buffer pH 4.0, 96 hours; for Fibrillation pH 7.0 (His): 50 mM histidine buffer pH 7.0, 96 hours; for Fibrillation pH 7.0 (Phos.): 50 mM phosphate buffer pH 7.0, 96 hours. An outline of the steps:
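1 mg/ml peptide with 40 μM ThT in 50 mM phosphate pH 7.0, 50 mM histidine pH 7.0 or 50 mM acetate pH 4.0, in triplicate. Fluorescence read every 10 min after 300 s agitation over 96 h at 40 °C. Lag-time (h) is the intersection of linear fits to stable and growth phases.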

In series [3] the target is T1, human calcitonin receptor (hCTR2) (Homo sapiens, UniProt P30988).
T1 construct: expressed in transfected cells
T1 sequence (P30988 25-474): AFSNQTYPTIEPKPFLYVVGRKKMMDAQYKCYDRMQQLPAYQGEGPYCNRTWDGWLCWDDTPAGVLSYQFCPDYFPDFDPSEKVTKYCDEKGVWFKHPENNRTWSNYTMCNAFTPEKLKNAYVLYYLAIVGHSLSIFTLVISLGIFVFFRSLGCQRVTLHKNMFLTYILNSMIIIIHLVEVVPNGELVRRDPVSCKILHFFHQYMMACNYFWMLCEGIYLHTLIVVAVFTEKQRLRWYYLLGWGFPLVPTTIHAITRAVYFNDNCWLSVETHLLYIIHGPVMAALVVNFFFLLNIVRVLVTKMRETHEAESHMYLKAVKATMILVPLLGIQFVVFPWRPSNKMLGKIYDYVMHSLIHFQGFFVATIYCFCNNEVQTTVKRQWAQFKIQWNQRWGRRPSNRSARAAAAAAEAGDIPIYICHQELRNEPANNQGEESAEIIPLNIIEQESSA
The experiment in a line: hCTR2 cAMP assay (AlphaScreen) in COS7 cells. The settings on record: cAMP induction, COS7 cells expressing hCTR2; Table 1; read-out: hCTR2 EC50. It is filed as cell-based. The method in brief:
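Stable hCTR2 clone in RAMP-naïve COS7 cells stimulated 15 min at 37 °C with increasing peptide concentrations in Tyrode buffer pH 7.4 containing IBMX and 0.1% casein. cAMP in lysates measured by AlphaScreen; EC50 from 4-parameter logistic fit.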
(Cyclic AMP is a second messenger, typically raised through Gs and lowered through Gi signalling.)

Data on three compounds can be found in patent US20210115104A1, “AMYLIN ANALOGUES” (Zealand Pharma A/S, priority 2015, published 2021).

pEC50: −log10 of the molar value. *1 amine or outer side, *2 acyl side, *3 side chain or, on linkers, in order; H or OH if unused. Where a SMILES comes first, the peptide text is derived from it. Bridges are numbered along the chain shown (N, C = ends). [ ]: non-standard residue; d: D form. The star is where a group is joined. C20 diacid = O=C(O)CCCCCCCCCCCCCCCCCCC(=O)*; γGlu = O=C(O)[C@H](CCC(=O)[*:2])N[*:1]; Hyp = O=C(O)[C@@H]1C[C@@H](O)CN1; NMeI = CC[C@H](C)[C@H](NC)C(=O)O; Sar = CNCC(=O)O

By pEC50 is commonly meant the EC50 on a negative log10 scale, so that one unit is a factor of ten. Consider `CC[C@H](C)[C@@H](C(=O)N[C@@H](CC(C)C)C(=O)N[C@@H](CO)C(=O)N[C@@H](CO)C(=O)N[C@H](C(=O)N[C@@H](CCC(=O)O)C(=O)N[C@H](C(=O)NCC(=O)N[C@@H](CO)C(=O)N[C@@H](CC(N)=O)C(=O)N[C@H](C(=O)N1C[C@H](O)C[C@H]1C(N)=O)[C@@H](C)O)C(C)C)[C@@H](C)O)N(C)C(=O)[C@H](C)NC(=O)CN(C)C(=O)[C@H](Cc1ccccc1)NC(=O)[C@H](CCCNC(=N)N)NC(=O)[C@H](CCC(N)=O)NC(=O)[C@H](CC(C)C)NC(=O)[C@H](Cc1ccccc1)NC(=O)[C@H](Cc1c[nH]cn1)NC(=O)[C@H](C)NC(=O)[C@H](CC(C)C)NC(=O)[C@H](CCCNC(=N)N)NC(=O)[C@H](CCC(=O)O)NC(=O)[C@@H](NC(=O)[C@H](C)NC(=O)[C@@H]1CSSC[C@H](NC(=O)[C@H](CCCNC(=N)N)NC(=O)CC[C@H](NC(=O)CCCCCCCCCCCCCCCCCCC(=O)O)C(=O)O)C(=O)NCC(=O)N[C@@H]([C@@H](C)O)C(=O)N[C@@H](C)C(=O)N[C@@H]([C@@H](C)O)C(=O)N1)[C@@H](C)O` [Compound 77, [19CD]-isoGlu-R-C( )-GTAT-C( )-ATERLAHFLQRF-Gly(Me)-A-Ile(Me)-LSSTEVGSNT-Hyp-NH2] ({C20 diacid-γGlu}-RCGTATCATERLAHFLQRF[Sar]A[NMeI]LSSTEVGSNT[Hyp]-NH2; disulfide 2-7), for which, in series [1], the “Normalized purity after 7 days, 40° C., pH 4” value (shortened to “Normalized purity … pH 4”) is “A (A = >90%)”; the “Normalized purity after 7 days, 40° C., pH 6” value (from here on “Normalized purity … pH 6”) is on record as “A (A = >90%)”; the “Normalized purity after 7 days, 40° C., pH 7.5” value (“Normalized purity … pH 7.5” for short) was “B (B = 70-90%)”; the “Normalized purity after 7 days, 40° C., pH 9” value (shortened to “Normalized purity … pH 9”) is “B (B = 70-90%)”. In series [2], the “Fibrillation pH 4.0 (Ac)” value is listed as “FND”, the “Fibrillation pH 7.0 (His)” value was “FND” and the “Fibrillation pH 7.0 (Phos.)” value was “FND”. Besides, the pEC50 in series [3] is 9.80.
For the compound `CC[C@H](C)[C@@H](C(=O)N[C@@H](CC(C)C)C(=O)N[C@@H](CO)C(=O)N[C@@H](CO)C(=O)N[C@H](C(=O)N[C@@H](CCC(=O)O)C(=O)N[C@H](C(=O)NCC(=O)N[C@@H](CO)C(=O)N[C@@H](CC(N)=O)C(=O)N[C@H](C(=O)N1C[C@H](O)C[C@H]1C(N)=O)[C@@H](C)O)C(C)C)[C@@H](C)O)N(C)C(=O)[C@H](C)NC(=O)CN(C)C(=O)[C@H](Cc1ccccc1)NC(=O)[C@H](CO)NC(=O)[C@H](CO)NC(=O)[C@H](CCCNC(=N)N)NC(=O)[C@H](CCC(N)=O)NC(=O)[C@H](CC(C)C)NC(=O)[C@H](Cc1ccccc1)NC(=O)[C@H](Cc1c[nH]cn1)NC(=O)[C@H](C)NC(=O)[C@H](CC(C)C)NC(=O)[C@H](CCCNC(=N)N)NC(=O)[C@H](CC(=O)O)NC(=O)[C@@H](NC(=O)[C@H](C)NC(=O)[C@@H]1CSSC[C@H](NC(=O)[C@H](CCCNC(=N)N)NC(=O)CC[C@H](NC(=O)CCCCCCCCCCCCCCCCCCC(=O)O)C(=O)O)C(=O)N[C@@H](CCC(N)=O)C(=O)N[C@@H]([C@@H](C)O)C(=O)N[C@@H](C)C(=O)N[C@@H]([C@@H](C)O)C(=O)N1)[C@@H](C)O` [Compound 88, [19CD]-isoGlu-R-C( )-QTAT-C( )-ATDRLAHFLQRSSF-Gly(Me)-A-Ile(Me)-LSSTEVGSNT-Hyp-NH2] ({C20 diacid-γGlu}-RCQTATCATDRLAHFLQRSSF[Sar]A[NMeI]LSSTEVGSNT[Hyp]-NH2; disulfide 2-7), in series [1], the “Normalized purity … pH 4” value is listed as “A (A = >90%)”; the “Normalized purity … pH 6” value is “A (A = >90%)”; the “Normalized purity … pH 7.5” value was “A (A = >90%)”; the “Normalized purity … pH 9” value was “A (A = >90%)”. Further, in series [2], the “Fibrillation pH 4.0 (Ac)” value was “FND”, the “Fibrillation pH 7.0 (His)” value was “FND” and the “Fibrillation pH 7.0 (Phos.)” value is listed as “FND”. Further, in series [3], the pEC50 was 10.22.
On to `CC[C@H](C)[C@@H](C(=O)N[C@@H](CC(C)C)C(=O)N[C@@H](CO)C(=O)N[C@@H](CO)C(=O)N[C@H](C(=O)N[C@@H](CCC(=O)O)C(=O)N[C@H](C(=O)NCC(=O)N[C@@H](CO)C(=O)NCC(=O)N[C@H](C(=O)N1C[C@H](O)C[C@H]1C(N)=O)[C@@H](C)O)C(C)C)[C@@H](C)O)N(C)C(=O)[C@H](C)NC(=O)CN(C)C(=O)[C@H](Cc1ccccc1)NC(=O)[C@H](CO)NC(=O)[C@H](CO)NC(=O)[C@H](CCCNC(=N)N)NC(=O)[C@H](CCC(N)=O)NC(=O)[C@H](CC(C)C)NC(=O)[C@H](Cc1ccccc1)NC(=O)[C@H](Cc1c[nH]cn1)NC(=O)[C@H](C)NC(=O)[C@H](CC(C)C)NC(=O)[C@H](CCCNC(=N)N)NC(=O)[C@H](CCC(=O)O)NC(=O)[C@@H](NC(=O)[C@H](C)NC(=O)[C@@H]1CSSC[C@H](NC(=O)[C@H](CCCNC(=N)N)NC(=O)CC[C@H](NC(=O)CCCCCCCCCCCCCCCCCCC(=O)O)C(=O)O)C(=O)N[C@@H](CCC(N)=O)C(=O)N[C@@H]([C@@H](C)O)C(=O)N[C@@H](C)C(=O)N[C@@H]([C@@H](C)O)C(=O)N1)[C@@H](C)O` [Compound 90, [19CD]-isoGlu-R-C( )-QTAT-C( )-ATERLAHFLQRSSF-Gly(Me)-A-Ile(Me)-LSSTEVGSGT-Hyp-NH2] ({C20 diacid-γGlu}-RCQTATCATERLAHFLQRSSF[Sar]A[NMeI]LSSTEVGSGT[Hyp]-NH2; disulfide 2-7), for which, in series [1], the “Normalized purity … pH 4” value is reported as “A (A = >90%)”; the “Normalized purity … pH 6” value was “A (A = >90%)”; the “Normalized purity … pH 7.5” value was “A (A = >90%)”; the “Normalized purity … pH 9” value is recorded as “A (A = >90%)”. For the same compound, in series [2], the “Fibrillation pH 4.0 (Ac)” value is reported as “FND”, the “Fibrillation pH 7.0 (His)” value is “FND” and the “Fibrillation pH 7.0 (Phos.)” value was “FND”. Besides, the pEC50 in series [3] is 9.70.
